Calls of active or inactive are those of the source. The rule behind the calls is not given here.
Experiments:
Influenza A virus [1] = experiment: Antiviral activity against Influenza A virus H1N1 (A/Weiss/43)-infected in BALB/c mouse assessed as reduction in lung tissue damage administered intranasally for 4 to 6 days starting from 3 hrs post-viral infection; format: functional, organism-based; details: dose 25-100 mg/kg/day, route nas, time 4-6 day
Influenza A virus [2] = experiment: Inhibition of Influenza A virus replication infected in dog MDCK cells assessed as downregulation of virus M gene expression at 25 to 50 uM measured after 24 to 72 hrs post-infection by qRT-PCR analysis; format: functional, organism-based; details: dose 25-50 µM
Erythrocyte [3] = experiment: Inhibition of Hemagglutinin2 in Influenza A virus assessed as inhibition of virus-induced hemolysis at 7.81 to 250 uM pretreated with virus for 30 mins followed by chicken RBC addition and measured after 30 mins; format: cell-based; details: dose 7.81-250 µM, time 60.0 min
Erythrocyte [4] = experiment: Inhibition of Hemagglutinin1 in Influenza A virus assessed as inhibition of virus-induced hemagglutination at 7.81 to 250 uM pretreated with virus for 30 mins followed by chicken RBC addition and measured after 1 hr; format: cell-based; details: dose 7.81-250 µM, time 90.0 min
Influenza A virus [5] = experiment: Inhibition of Influenza A virus Neuraminidase at 100 to 300 uM pretreated with enzyme for 5 mins followed by fluorogenic substrate addition and measured for 1 hr by fluorescence based analysis; details: dose 100-300 µM, time 65.0 min
Influenza A virus [6] = experiment: Antiviral activity against Influenza A virus H1N1 (A/Weiss/43) infected in MDCK cells assessed as reduction of viral replication at 50 uM treated for 2 to 4 hrs after viral infection and measured after 72 hrs by MTT method; format: functional, organism-based; details: time 74-76 hrs
[7] = Selectivity index, ratio of CC50 for dog MDCK cells to EC50 for antiviral activity against Influenza A virus H1N1 (A/Weiss/43) infected in MDCK cells treated for 2 hrs during viral adsorption and measured after 72 hrs; format: toxicity, cell-based; details: read-out: Ratio CC50/EC50
[8] = Selectivity index, ratio of CC50 for dog MDCK cells to EC50 for antiviral activity against Influenza A virus H1N1 (A/Weiss/43) infected in MDCK cells treated for 2 hrs before viral infection and measured after 72 hrs; format: toxicity, cell-based; details: read-out: Ratio CC50/EC50
Influenza A virus [9] = experiment: Antiviral activity against Influenza A virus H1N1 (A/Weiss/43)-infected in BALB/c mouse assessed as reduction in viral NP protein expression in lungs at 25 to 100 mg/kg/day administered intranasally for 6 days starting from 3 hrs post-viral infection by immunohistochemistry; format: functional, organism-based; details: dose 25-100 mg/kg/day, route nas, time 6.0 day
[10] = Cytotoxicity against dog MDCK cells assessed as reduction in cell viability incubated for 72 hrs by MTT assay; format: toxicity, cell-based, Canis lupus familiaris
[11] = Selectivity index, ratio of CC50 for dog MDCK cells to EC50 for antiviral activity against Influenza A virus H1N1 (A/Weiss/43) infected in MDCK cells treated for 72 hrs after viral adsorption; format: toxicity, cell-based; details: read-out: Ratio CC50/EC50
Influenza A virus [12] = experiment: Antiviral activity against Influenza A virus H1N1 (A/Weiss/43)-infected in BALB/c mouse assessed as reduction in lung index at 100 mg/kg/day administered intranasally for 6 days starting from 3 hrs post-viral infection; format: functional; details: 144 h, route nas, time 6 day
[13] = Selectivity index, ratio of CC50 for dog MDCK cells to EC50 for antiviral activity against Influenza A virus H1N1 (A/Virginia/ATCC2/2009) infected in MDCK cells; format: toxicity, cell-based; details: read-out: Ratio CC50/EC50
Influenza A virus [14] = experiment: Inhibition of Influenza A virus replication infected in dog MDCK cells assessed as downregulation of virus NP protein expression by measuring decrease in green fluorescence intensity at 25 to 50 uM measured after 24 hrs by immunofluorescence analysis; format: functional, organism-based; details: dose 25-50 µM
Influenza A virus [15] = experiment: Inhibition of Influenza A virus replication infected in human A549 cells assessed as downregulation of virus NP protein expression at 25 to 50 uM measured after 24 hrs by western blot analysis; format: functional, organism-based; details: dose 25-50 µM
Influenza A virus [16] = experiment: Antiviral activity against Influenza A virus H1N1 (A/Weiss/43)-infected in dog MDCK cells assessed as reduction in oxidative stress by measuring proportion of cells with excessive ROS accumulation at 50 uM treated at 2 hrs post-infection and measured after 36 hrs by DCFH-DA staining based flow cytometry (reference value: 30.6%); format: functional; parameters: scale not given: the % may be the effect or the level left
[17] = Toxicity in dog MDCK cells assessed as proportion of necrotic cells at 50 uM measured after 72 hrs by AnnexinV-FITC/PI staining based flow cytometry (reference value: 1.4%); format: cell-based, Canis lupus familiaris
Influenza A virus [18] = experiment: Antiviral activity against Influenza A virus H1N1 infected in human A549 cells assessed as decrease in apoptosis by measuring decrease in cleaved caspase-7 protein expression at 25 to 50 uM measured after 24 hrs by western blot analysis; format: functional, organism-based; details: dose 25-50 µM
Influenza A virus [19] = experiment: Antiviral activity against Influenza A virus H1N1 infected in human A549 cells assessed as decrease in RIG-1 pathway related protein expression by measuring decrease in RIG-1 protein expression at 25 to 50 uM measured after 24 hrs by western blot analysis; format: functional, organism-based; details: dose 25-50 µM
Influenza A virus [20] = experiment: Antiviral activity against Influenza A virus H1N1 infected in human A549 cells assessed as decrease in apoptosis inducing factor gene expression by measuring decrease in FasL gene expression at 25 to 50 uM measured after 24 hrs by qRT-PCR analysis; format: functional, organism-based; details: dose 25-50 µM
Influenza A virus [21] = experiment: Antiviral activity against Influenza A virus H1N1 infected in human A549 cells assessed as decrease in apoptosis inducing factor gene expression by measuring decrease in TRAIL gene expression at 25 to 50 uM measured after 24 hrs by qRT-PCR analysis; format: functional, organism-based; details: dose 25-50 µM
Influenza A virus [22] = experiment: Antiviral activity against Influenza A virus H1N1 infected in human A549 cells assessed as decrease in cytokine gene expression by measuring decrease in IL-8 gene expression at 25 to 50 uM measured after 24 hrs by qRT-PCR analysis; format: functional, organism-based; details: dose 25-50 µM
Influenza A virus [23] = experiment: Antiviral activity against Influenza A virus H1N1 infected in human A549 cells assessed as decrease in cytokine gene expression by measuring decrease in IP-10 gene expression at 25 to 50 uM measured after 24 hrs by qRT-PCR analysis; format: functional, organism-based; details: dose 25-50 µM
Influenza A virus [24] = experiment: Antiviral activity against Influenza A virus H1N1 infected in human A549 cells assessed as decrease in cytokine gene expression by measuring decrease in TNF-alpha gene expression at 25 to 50 uM measured after 24 hrs by qRT-PCR analysis; format: functional, organism-based; details: dose 25-50 µM
Influenza A virus [25] = experiment: Antiviral activity against Influenza A virus H1N1 (A/Weiss/43)-infected in BALB/c mouse assessed as improvement in body weight at 25 to 100 mg/kg/day administered intranasally for 6 days starting from 3 hrs post-viral infection; format: functional, organism-based; details: dose 25-100 mg/kg/day, route nas, time 6.0 day
[26] = Toxicity in BALB/c mouse infected with Influenza A virus H1N1 (A/Weiss/43) assessed as kidney pathological changes at 25 to 100 mg/kg/day administered intranasally for 6 days starting from 3 hrs post-viral infection by Hematoxylin-Eosin staining based analysis; format: organism-based; details: in vivo, inhaled_or_intranasal, 144 h, dose 25-100 mg/kg/day, route nas, time 6 day
Influenza A virus [27] = experiment: Antiviral activity against Influenza A virus H1N1 (A/Weiss/43)-infected in BALB/c mouse assessed as reduction in IL-6 gene expression in lungs at 25 to 100 mg/kg/day administered intranasally for 6 days starting from 3 hrs post-viral infection by qRT-PCR analysis; format: functional, organism-based; details: dose 25-100 mg/kg/day, route nas, time 6.0 day
Influenza A virus [28] = experiment: Antiviral activity against Influenza A virus H1N1 (A/Weiss/43)-infected in BALB/c mouse assessed as reduction in IL-8 gene expression in lungs at 25 to 100 mg/kg/day administered intranasally for 6 days starting from 3 hrs post-viral infection by qRT-PCR analysis; format: functional, organism-based; details: dose 25-100 mg/kg/day, route nas, time 6.0 day

For O=[N+]([O-])c1ccc(S(=O)(=O)N(Cc2ccccc2)c2cccc3ccccc23)cc1, the Activity (Influenza A virus [1]) was “Dose-Dependent Effect”, the inhibition (Influenza A virus [2]) was “Active” and the inhibition (Erythrocyte [3]) was “inactive”. For the same compound, the inhibition (Erythrocyte [4]) was “inactive”, the inhibition (Influenza A virus [5]) was “inactive” and the Activity (Influenza A virus [6]) was “Active”. The selectivity ratio at 72 h [7] was > 131, the selectivity ratio at 72 h [8] was > 105 and the Activity (Influenza A virus [9]) was “Active”. The CC50 at 72 h [10] was > 800 µM, the selectivity ratio at 72 h [11] was > 351 and the inhibition in vivo at 100 mg/kg/day (Influenza A virus [12]) was 43.3%. The selectivity ratio [13] was > 240, the inhibition (Influenza A virus [14]) was “Active” and the inhibition (Influenza A virus [15]) was “Active”. For the same compound, the Activity (Influenza A virus [16]) was 4.66%, the Activity [17] was 0.82% and the inhibition (Influenza A virus [18]) was “Active”. The inhibition (Influenza A virus [19]) was “Active”, the inhibition (Influenza A virus [20]) was “Active” and the inhibition (Influenza A virus [21]) was “Active”. For the same compound, the inhibition (Influenza A virus [22]) was “Active”, the inhibition (Influenza A virus [23]) was “Active” and the inhibition (Influenza A virus [24]) was “Active”. The Activity (Influenza A virus [25]) was “Active”, the Activity [26] was “Non-Toxic” and the Activity (Influenza A virus [27]) was “Active”. The Activity (Influenza A virus [28]) was “Active”.
